{"source": "ChEMBL document CHEMBL2321846", "about": "“Aldosterone synthase inhibitors: targeting chronic kidney disease and diabetic nephropathy” (ACS Med Chem Lett, 2013)", "key": {"[1]": {"system": "NCI-H295R", "test": "Inhibition of estradiol production in human NCI-H295R cells after 48 hrs by HPLC analysis", "assay_type": "functional, cell-based"}, "[2]": {"system": "NCI-H295R", "test": "Inhibition of testosterone production in human NCI-H295R cells after 48 hrs by HPLC analysis", "assay_type": "functional, cell-based"}, "[3]": {"target": "T1, Cytochrome P450 11B2, mitochondrial (Homo sapiens, UniProt P19099)", "T1 sequence (P19099 whole entry)": "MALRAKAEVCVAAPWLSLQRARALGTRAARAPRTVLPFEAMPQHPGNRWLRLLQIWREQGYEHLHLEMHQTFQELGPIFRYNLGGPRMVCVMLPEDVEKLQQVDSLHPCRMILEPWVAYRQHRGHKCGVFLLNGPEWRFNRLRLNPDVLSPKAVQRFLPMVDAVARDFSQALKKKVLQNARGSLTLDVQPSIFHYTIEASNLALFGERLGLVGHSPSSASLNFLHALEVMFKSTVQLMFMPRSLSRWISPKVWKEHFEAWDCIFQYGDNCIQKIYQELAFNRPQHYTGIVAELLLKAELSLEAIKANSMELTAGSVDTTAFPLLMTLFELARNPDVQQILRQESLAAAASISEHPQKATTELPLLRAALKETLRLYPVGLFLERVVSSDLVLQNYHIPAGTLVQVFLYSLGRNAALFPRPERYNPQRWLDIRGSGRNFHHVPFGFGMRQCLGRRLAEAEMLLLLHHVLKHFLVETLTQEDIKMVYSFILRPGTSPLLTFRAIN", "test": "Inhibition of human aldosterone synthase transfected in chinese hamster V79 cells after 24 hrs by LC-MS method", "assay_type": "cell-based"}, "[4]": {"system": "estradiol production (relative to human aldosterone synthase)", "test": "Selectivity ratio of IC50 for estradiol production in human H295R cells to IC50 for human aldosterone synthase", "assay_type": "ADME, cell-based", "settings": "read-out: Ratio IC50"}, "[5]": {"system": "testosterone production (relative to human aldosterone synthase)", "test": "Selectivity ratio of IC50 for testosterone production in human H295R cells to IC50 for human aldosterone synthase", "assay_type": "ADME, cell-based", "settings": "read-out: Ratio IC50"}}, "data": [{"compound": "CC1(C)C[C@H](c2ccc(C#N)cc2)c2cn[nH]c21", "values": [{"measurement": "IC50", "setting": "[1]", "value": 13.2, "unit": "µM"}, {"measurement": "IC50", "setting": "[2]", "value": "> 30", "unit": "µM"}, {"measurement": "IC50", "setting": "[3]", "value": 0.005, "unit": "µM"}, {"measurement": "selectivity ratio", "setting": "[4]", "value": 2640}, {"measurement": "selectivity ratio", "setting": "[5]", "value": "> 6000"}]}, {"compound": "CC1(C)CC(c2ccc(C#N)cc2F)c2cn[nH]c21", "note": "(stereo not given)", "values": [{"measurement": "IC50", "setting": "[1]", "value": 22, "unit": "µM"}, {"measurement": "IC50", "setting": "[2]", "value": "> 30", "unit": "µM"}, {"measurement": "IC50", "setting": "[3]", "value": 0.007, "unit": "µM"}, {"measurement": "selectivity ratio", "setting": "[4]", "value": 3140}, {"measurement": "selectivity ratio", "setting": "[5]", "value": "> 4280"}]}]}
